# Laboratory results reported in patent publication US12306176B2, “Microfluidic bi-directional migration assay” (Ohio State Innovation Foundation, priority 2017, dated 2025).
# Columns and labels:
# MDA-MB-231 cells [1] = experiment: Modified transwell migration assay; type: cell-based, human; details: EGF 100 ng/mL in bottom chamber, 8 hours
# Excerpt: In addition to the MBDM assay, the modified transwell migration assay (Ahirwar D K, et al. (2015) Sci Rep 5:11005.) was used to determine the effects of standalone iEF treatment on number of cells migrated to complement the speed and persistence data obtained from the MBDM assay. iEF treatment alone had no significant effect (neither stimulatory nor inhibitory) on the total number of MDA-MB-231 cells that spontaneously migrated across the transwell membrane (˜10 μm thick) compared to the untreated control (FIG. 8). These outcomes occurred for both anti-parallel and parallel directions of iEF application.
# Transwell permeable supports that have 6.5 mm diameter inserts of polycarbonate membrane with 8 μm diameter pore size (Corning, CLS3422) were used in the experiments reported here. […] Cell migration numbers were then quantified using a custom MATLAB script as described in Image Acquisition and Processing. […]
# Images from experiments with the transwell migration assays were taken using a stereo microscope (Leica Microsystems Inc.) after fixation and staining of the cells using the HEMA 3 solution kit (Fisher Scientific). […] The images were then imported into MATLAB and analyzed using a custom code (MATLAB script). […] The average area of a cell was determined from the mean of manual measurements of approximately 20 isolated cells for each case. […]
# MDA-MB-231 cells [2] = experiment: F-actin polarization ratio in the MBDM assay; type: cell-based, human; details: EGF gradient, absence of iEFs (untreated 0.34)
# Description: This section reports on the effects of iEFs on the distribution of F-actin in cells migrating along the microtracks of the MBDM assay. To quantify the distribution of F-Actin, a quantity referred to herein as the polarization ratio (PR) was introduced, which has values between 0 and 1.
# Cells in the devices were fixed in 3.7 (wt/wt) paraformaldehyde solution for 30 minutes. They were subsequently washed with 1×PBS three times. For F-actin labeling, we blocked the cells for 60 minutes in blocking buffer (0.1% Triton-X and 5% donkey serum in 1×PBS). Cells were then treated with Alexa Fluoro® 488-conjugated or 555-conjugated phalloidin for 60 minutes (1:40, ThermoFisher), again followed by a 1×PBS wash (three times, 10 minutes each). […]
# Actin immunofluorescence images were acquired using a Nikon TE200 epifluorescence microscope (Nikon Instruments Inc.) under a 20× objective. The immunofluorescence images were quantified using custom MATLAB scripts. The custom MATLAB script calculated the geometric center for an individual cell, i.e. the arithmetic mean of the locations of all pixels comprising the cell area. Then the distance from this geometric center and angle (0°≤θ≤360°) of every pixel relative to a horizontal axis (θ=0°) was calculated. […] A moment of intensity is calculated for individual pixels and this value is summed for all the pixels in every individual sector. […]
substance,measurement,setting,value
epidermal growth factor [EGF],transmigration compared to untreated controls,MDA-MB-231 cells [1],significantly promoted
same,center of the F-actin polarization ratio (PR) distribution,MDA-MB-231 cells [2],0.62
